From patent EP0019589A1, “Tripeptide derivatives and their use in a process for determining enzymes” (Pentapharm A.G., priority 1979, dated 1980)
Non-standard residues stand in square brackets, D forms with d. Residues, ends and D or L forms follow the SMILES beside them. *: point of attachment. Cha = N[C@@H](CC1CCCCC1)C(=O)O; dCha = N[C@H](CC1CCCCC1)C(=O)O; dChg = N[C@@H](C(=O)O)C1CCCCC1; dPhg = N[C@@H](C(=O)O)c1ccccc1; pNA = O=[N+]([O-])c1ccc(N*)cc1; dNle = CCCC[C@@H](N)C(=O)O; Abu = CC[C@H](N)C(=O)O

Columns and labels:
Type in all cases: biochemical
Humanthrombin = molecular target: T1, Humanthrombin (Homo sapiens, UniProt P00734); experiment: Cleavage of chromogenic substrate by human NIH thrombin; details: 1 NIH-Einheit human thrombin, per min; Substratkonzentration 2 x 10^-4 molar
T1 construct: Humanplasmin und hu-manem NIH-Thrombin
Procedure, shortened: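 Thrombin hydrolysis of chromogenic p-nitroanilide substrate read spectrophotometrically at 405 nm; fluorogenic naphthylamine, methylcoumarylamine or di(methoxycarbonyl)phenylamine substrates read continuously by fluorescence emission at 400-470 nm. Activity taken as product formed per unit time; 1 µmol product/min defined as 1 enzyme unit for a given substrate.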

Urinkallikrein = molecular target: T2, Urinkallikrein (Homo sapiens, UniProt P06870); experiment: Cleavage of chromogenic substrate by urinary kallikrein in human urine; details: 1 ml human urine (pooled morning urine of healthy persons), per min; Substratkonzentration 2 x 10^-4 molar
T2 construct: 1 ml Urin und 1 ml TRIS-Imidazol-Puffer mit pH 7,9; from tissue; host or cells: human urine

Humanplasmin = molecular target: T3, Humanplasmin (Homo sapiens, UniProt P00747); experiment: Cleavage of chromogenic substrate by human plasmin; details: 1 CU-Einheit human plasmin, per min; Substratkonzentration 2 x 10^-4 molar
T3 construct: da bei der Aktivierung aus 1 Molekül Plasminogen 1 Molekül Plasmin entsteht

[1] = molecular target: T4, Submandibularis-Kallikrein (Homo sapiens, UniProt P06870); experiment: Cleavage of chromogenic substrate by submandibular (glandular) kallikrein in human sputum; details: 1 ml human sputum, per min; Substratkonzentration 2 x 10^-4 molar
T4 construct: Man mischt 0,5 ml Sputum mit 2 ml TRIS-Imidazol-Puffer; from tissue; host or cells: human sputum
Procedure, shortened: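 Sputum mixed with TRIS-imidazole buffer (ionic strength 1.0), preincubated 5 min at 37°C and centrifuged; supernatant incubated with aqueous substrate solution (2 x 10^-3 M, stock). p-Nitroaniline release followed continuously at 405 nm for 5-10 min; activity expressed as mU per ml sputum from ΔOD/min.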

T2 sequence (P06870 25-262): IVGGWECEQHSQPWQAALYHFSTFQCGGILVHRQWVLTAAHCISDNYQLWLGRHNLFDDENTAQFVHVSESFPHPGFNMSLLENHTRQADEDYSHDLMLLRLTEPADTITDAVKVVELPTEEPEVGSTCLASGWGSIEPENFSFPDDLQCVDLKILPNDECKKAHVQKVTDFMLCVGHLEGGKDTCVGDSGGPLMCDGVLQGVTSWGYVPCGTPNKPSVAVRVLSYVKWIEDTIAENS
T4 sequence (P06870 25-262): as above
T3 sequence (P00747 581-810 limits assumed): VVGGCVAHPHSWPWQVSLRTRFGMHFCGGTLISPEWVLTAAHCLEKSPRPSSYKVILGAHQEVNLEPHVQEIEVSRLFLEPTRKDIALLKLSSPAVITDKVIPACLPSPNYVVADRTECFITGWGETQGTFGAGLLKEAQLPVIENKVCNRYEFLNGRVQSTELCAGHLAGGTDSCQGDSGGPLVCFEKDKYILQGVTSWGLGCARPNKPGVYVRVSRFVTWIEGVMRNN
T3 sequence (P00747 97-580 partner limits assumed): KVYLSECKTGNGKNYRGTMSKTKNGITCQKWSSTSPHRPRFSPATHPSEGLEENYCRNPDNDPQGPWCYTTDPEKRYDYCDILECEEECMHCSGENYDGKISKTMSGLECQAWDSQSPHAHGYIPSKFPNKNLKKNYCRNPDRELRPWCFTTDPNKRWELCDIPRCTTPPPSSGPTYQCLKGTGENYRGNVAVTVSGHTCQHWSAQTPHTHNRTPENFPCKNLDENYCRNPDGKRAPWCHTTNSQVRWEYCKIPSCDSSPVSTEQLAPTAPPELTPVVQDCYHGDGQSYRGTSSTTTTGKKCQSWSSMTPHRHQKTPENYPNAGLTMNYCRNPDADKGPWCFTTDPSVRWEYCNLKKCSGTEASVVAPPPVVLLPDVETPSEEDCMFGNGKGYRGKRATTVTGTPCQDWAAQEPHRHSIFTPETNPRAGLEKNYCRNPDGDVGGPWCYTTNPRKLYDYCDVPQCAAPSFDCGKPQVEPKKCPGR

Row | SMILES | Menge des durch 1 NIH-Einheit Thrombin pro Min. freigesetzten Spaltproduktes R-NH2 in Nanomol (Humanthrombin) (Humanthrombin) | Menge des durch 1 ml Humanurin pro Min. freigesetzten Spaltproduktes R-NH2 in Nanomol (Urinkallikrein) (Urinkallikrein) | Menge des durch 1 CU-Einheit Humanplasmin pro Min. freigesetzten Spaltproduktes R-NH2 in Nanomol (Humanplasmin) (Humanplasmin) | Menge des durch 1 ml Humansputum pro Min. freigesetzten Spaltproduktes R-NH2 in Nanomol (Submandibularis-Kallikrein) [1]
1 | N=C(N)NCCC[C@H](NC(=O)[C@H](Cc1ccc(O)cc1)NC(=O)[C@H](N)CC1CCCCC1)C(=O)Nc1ccc([N+](=O)[O-])cc1 [Beispiel 43, 2HBr.H-D-CHA-Tyr-Arg-pNA] (H-[dCha]-Tyr-Arg-pNA) | 8,3 Nanomol | 0,49 Nanomol | 1407 Nanomol | 5,2 Nanomol
2 | N=C(N)NCCC[C@H](NC(=O)[C@H](CC1CCC(O)CC1)NC(=O)[C@H]1CCCN1)C(=O)Nc1ccc([N+](=O)[O-])cc1 (stereo partly drawn) [Beispiel 25, 2HBr.H-D-Pro-CHT-Arg-pNA] | 1,52 Nanomol | 0,52 Nanomol | 390 Nanomol | 10,7 Nanomol
3 | N=C(N)NCCC[C@H](NC(=O)[C@H](Cc1ccccc1)NC(=O)[C@H](N)c1ccccc1)C(=O)Nc1ccc([N+](=O)[O-])cc1 [Beispiel 63, 2HBr.H-D-Ph'Gly-Phe-Arg-pNA] (H-[dPhg]-Phe-Arg-pNA) | 2,4 Nanomol | 0,42 Nanomol | 841 Nanomol | 7,0 Nanomol
4 | NCCCC[C@H](NC(=O)[C@H](CC1CCCCC1)NC(=O)[C@H](N)C1CCCCC1)C(=O)Nc1ccc([N+](=O)[O-])cc1 [Beispiel 20, 2HBr.H-D-CHG-CHA-Lys-pNA] (H-[dChg]-[Cha]-Lys-pNA) | 0,99 Nanomol | 0,28 Nanomol | 500 Nanomol | 4,4 Nanomol
5 | CC(C)C[C@H](NC(=O)[C@H](N)Cc1ccccc1)C(=O)N[C@@H](CCCNC(=N)N)C(=O)Nc1ccc([N+](=O)[O-])cc1 [Beispiel 50, 2HBr.H-D-Phe-Leu-Arg-pNA] (H-[dF]-Leu-Arg-pNA) | 14,4 Nanomol | 0,61 Nanomol | 313 Nanomol | 6,8 Nanomol
6 | CC[C@H](NC(=O)[C@H](N)C1CCCCC1)C(=O)N[C@@H](CCCNC(=N)N)C(=O)Nc1ccc([N+](=O)[O-])cc1 [Beispiel 75, 2HBr.H-D-CHG-But-Arg-pNA] (H-[dChg]-[Abu]-Arg-pNA) | 102,9 Nanomol | 0,51 Nanomol | 439 Nanomol | 14,5 Nanomol
7 | CCCC[C@@H](N)C(=O)N[C@@H](CC1CCCCC1)C(=O)N[C@@H](CCCNC(=N)N)C(=O)Nc1ccc([N+](=O)[O-])cc1 [Beispiel 37, 2HBr.H-D-Nleu-CHA-Arg-pNA] (H-[dNle]-[Cha]-Arg-pNA) | 7,3 Nanomol | 2,08 Nanomol | 1179 Nanomol | 28,1 Nanomol
8 | CC(C)C[C@H](NC(=O)[C@H](N)CC1CCC(O)CC1)C(=O)N[C@@H](CCCNC(=N)N)C(=O)Nc1ccc([N+](=O)[O-])cc1 (stereo partly drawn) [Beispiel 51, 2HBr.H-D-CHT-Leu-Arg-pNA] | 58,1 Nanomol | 0,33 Nanomol | 596 Nanomol | 11,7 Nanomol
9 | NCCCC[C@H](NC(=O)[C@@H]1CCCN1C(=O)[C@H](N)C1CCCCC1)C(=O)Nc1ccc([N+](=O)[O-])cc1 [Beispiel 31, 2AcOH.H-D-CHG-Pro-Lys-pNA] (H-[dChg]-Pro-Lys-pNA) | 3,78 Nanomol | 0 Nanomol | 231 Nanomol | 1,9 Nanomol
